# Measurements published in patent US20110319495A1, “Pharmaceutical Composition for Hepatitis Treatment and Applications” (priority 2010, published 2011).
# Tests used:
# HepG2 cells [1] = assay: Lipid peroxidation degree (MDA) in alcohol-treated HepG2 cells; type: cell-based, human; conditions: lucidone 1, 5, 10 μg/ml or curcumin 10 μg/ml, 1 h before 100 mM alcohol for 24 h
# HepG2 cells [2] = assay: Glutathione content in alcohol-treated HepG2 cells; type: cell-based, human; conditions: lucidone 1, 5, 10 μg/ml or curcumin 10 μg/ml, 1 h before 100 mM alcohol for 24 h
# Procedure: A currently available GSH-96-well plate colorimetric GSH assay kit, Oxis International, Foster City, Calif., USA) is used to measure the content of glutathione (GSH). In brief, 40 μl chromogenic reagent dissolved in acid is added into 40 μl non-protein hepatocyte lysate, and added with 40 μl NaOH (30%), 40 μl color developer and buffer solution to form a mixed solution. Next, the mixed solution is shaken gently, and placed in room temperature for 10 m. Finally, a spectrometer (ELISA microplate reader, μQuant, Bio-Tek instruments, Inc., Winooski, Vt., USA) is used to detect the absorbance at wavelength 412 nm, and compared with a GSH absorbance curve of known concentration to judge the content of GSH. Similarly, the content of glutathione in the experimental mouseserum can be measured.
# HO-1 [3] = assay: HO-1 mRNA expression in HepG2 cells (real-time PCR); type: cell-based, human; conditions: lucidone 1, 5, 10 μg/ml or curcumin 10 μg/ml, with 100 mM alcohol, standardized to β-actin
# Procedure: Trizol reagent (Invitrogen Life Technologies, Carlsbad, Calif., USA) is used to extract total RNA of cells. One step RT-PCR is used for reverse transcription of mRNA of HO-1 and β-actin into cDNA, then real time-PCR (Applied Biosystems) is applied to real-time expression of HO-1 and β-actin.
# Said real-time PCR is used to detect PCR products by combining DNA and SYBR Green. The thermal cycle is: 3 m at 96° C.; 1 m at 96° C. in 40 cycles, 30 s at 50° C. and 90 s at 72° C.
# HO-1 [4] = assay: HO-1 protein expression in HepG2 cells (Western blotting); type: cell-based, human; conditions: lucidone 1, 5, 10 μg/ml or curcumin 10 μg/ml, with 100 mM alcohol
# tumor necrosis factor-α = assay: Content of TNF-α in culture solution of alcohol-treated HepG2 cells (ELISA); type: cell-based, human; conditions: 1, 5, 10 μg/ml, 1 h before 100 mM alcohol for 24 h; dose-dependent; effect equivalent to curcumin 10 μg/ml
# Procedure: (§1) According to the principle of Griess reaction, nitrite accumulated from the supernatant liquid cultivated by cells and mouse serum is measured to obtain indirectly the generation of nitric oxide. The supernatant liquid cultivated by cells and tumor necrosis factor-α in the serum are measured using the currently available human TNF-αELISA kit. In brief, aforementioned HepG2 cells of […] are separately cultivated in 96-well plate, and then added with lucidone and alcohol to cultivate them for 24 h. Next, the culture solution is diluted by the work reagent of aforementioned kit by a percentage of 1:2. Then, every 100 μl diluted culture solution is subject to ELISA reaction as per the operating instruction of aforementioned kit, and then a spectrometer is used to detect the absorbance at wavelength 450 nm so as to judge the content of tumor necrosis factor-α; in the mouse experiment, the mouse serum is diluted properly and then the content of tumor necrosis factor-α is tested as per the operating instruction of aforementioned kit. […]
# (§2) The content of ALT, AST and tumor necrosis factor-α (TNF-α) in the tested culture solution of HepG2 cells is measured (refer to preferred embodiment 1 [test of ALT and AST concentration] and [measurement of tumor necrosis factor-α ]).
# [5] = tested on: mouse suffered by hepatitis arising from alcohol; assay: Content of GSH and MDA in serum and tissue, mouse model of hepatitis arising from alcohol; type: in vivo; conditions: lucidone 100 mg/Kg/day i.p. 7 d, mean ± SD; for GSH in tissue / MDA in tissue: liver tissue
# From the text: (§3) The experimental mouse is selected from 4-week male mouse of ICR family (25±5 g) in Charles River (Taipei, Taiwan). Prior to the experiment, the experimental mouse will be bred for at least 1 week in constant temperature lab conditions wherein unlimited feedstock and water are supplied. All animals shall be governed by the Guide for the Care and Use of Laboratory Animals and relevant animal protection acts of Taiwan, and approved by local ethics commissions. 80% alcohol or lucidone is applied to aforementioned experimental mouse (1 mL/Kg) by following methods: alcohol is applied orally, or by intra-peritoneal injection, or alcohol and lucidone are applied orally, or by intra-peritoneal injection.
# A currently available lipid peroxidation test kit (Oxford Biomedical Research, Oxford, Mich., USA) is used to measure the degree of lipid peroxidation. In brief, the cells are lysed by 200 μl cell lysis buffer. Then, 140 μl cell lysate is mixed with 455 μl N-methyl-2-phenylindole dissolved in acetonitrile and 105 μl acid (HCL, 37%), and placed in 45° C. for 60 m. malondialdehyde (MDA) is a main product of polyunsaturated fatty acid lysed by peroxidation. In this experiment, N-methyl-2-phenylindole is used to generate stable chromophore through reaction with MDA, and the formation of MDA is measured under maximum absorbance wavelength 535 nm as an index of measuring lipid peroxidation. Similarly, the degree of lipid peroxidation in the serum of experimental mouse can be measured.
# A currently available GSH-96-well plate colorimetric GSH assay kit, Oxis International, Foster City, Calif., USA) is used to measure the content of glutathione (GSH). In brief, 40 μl chromogenic reagent dissolved in acid is added into 40 μl non-protein hepatocyte lysate, and added with 40 μl NaOH (30%), 40 μl color developer and buffer solution to form a mixed solution. Next, the mixed solution is shaken gently, and placed in room temperature for 10 m. […] Similarly, the content of glutathione in the experimental mouseserum can be measured.
# (§4) The aforementioned mouse are grouped and then applied with lucidone for 7 d at a dose of 100 mg/Kg/day by means of intra-peritoneal injection, and at the 7th day, applied with lucidone and then applied with 80% alcohol orally or by intra-peritoneal injection at a dose of 1 ml/Kg, one time every 12 h with 3 doses; of which, the mouse of the control group is fed with 1% DMSO dissolved in saline solution.
# Take out the serum and liver tissue of mouse suffered by hepatitis arising from alcohol as per aforementioned experimental design, and measure GSH content and lipid peroxidation degree as per the experimental methods in preferred embodiment 1.
# HepG2 cells [6] = assay: Content of ALT and AST in culture solution of alcohol-treated HepG2 cells; type: cell-based, human; conditions: 1, 5, 10 μg/ml, 1 h before 100 mM alcohol for 24 h; dose-dependent; effect equivalent to curcumin 10 μg/ml
# Procedure: (§5) A currently available test kit (Randox Laboratories, Antrim, UK) is applied to test the concentration of culture solution after cultivation of HepG2 cells as well as the concentration of ALT and AST in mouse serum. In brief, the experiment is designed to obtain the culture solution after cultivation of HepG2 cells and the serum of experimental mouse by the recommended test procedures.
# (§6) The aforementioned HepG2 cells cultivated normally are grouped, and then separately cultivated 1 h together with 0, 1, 5, 10 μg/ml lucidone (0 μg/ml, negative control group) or 10 μg/ml curcumin (curcumin, a known antioxidation compound, taken as a positive control group), and then alcohol (100 mM) is added for 24 h cultivation to stimulate oxidation stress. The experiment groups and control groups are configured in Table 1:
# as §2
# Nrf-2 and ARE = assay: Bonding activity of Nrf-2 and ARE in HepG2 cells (EMSA); type: cell-based, human; conditions: 1, 5, 10 μg/ml with 100 mM alcohol, dose-dependent
# reactive oxygen species = assay: Accumulation of reactive oxygen species in alcohol-treated HepG2 cells (DCF-DA); type: cell-based, human; conditions: 1, 5, 10 μg/ml, 1 h before 100 mM alcohol for 24 h; dose-dependent; effect equivalent to curcumin 10 μg/ml
# Procedure: A currently available DCF-DA (dihydrodichloro-fluorescein diacetate; Sigma, USA) is used to monitor the accumulation of reactive oxygen species (ROS) in cells. In brief, the cells (1×10^7) are wetted by phosphate buffer solution, and then added into 10 μm DCF-DA for 4 h cultivation at 37° C., and then fluorescence spectrophotometer is used to measure the fluorescence (488 nm/530 nm).
# as §6
# The content of reactive oxygen species and nitric oxide in the tested culture solution of HepG2 cells is measured (refer to preferred embodiment 1 [Test of accumulation of reactive oxygen species in cells] and [Griess nitrite test]).
# FIG. 3A depicts the content of reactive oxygen species of HepG2 cells in various groups, of which the fluorescence strength of DCF-DA indicates the content of reactive oxygen species. FIG. 3B depicts the generation of nitric oxide of HepG2 cells in various groups, of which nitrite generation indicates the generation of nitric oxide.
# Nrf-2 = Nrf-2 translocation in HepG2 cells (Western blotting of cytoplasm and nuclear extracts); type: cell-based, human; conditions: 1, 5, 10 μg/ml with 100 mM alcohol
# Procedure: The cytosolic extracts and nuclear extracts are prepared as per the known test procedures using the currently available test kit (protocol #78833 Nuclear and Cytoplasmic Extraction Reagent kit). And, the common protein assay reagent (Bio-Rad) is used to measure the concentration of protein.
# Western blotting is implemented as per the known test procedures in the relevant field, of which said anti-body and enhanced chemiluminescene regents (ECL, Pierce) are used for immunoblotting, and then an imaging device (Viogene Biotek, Sunnyvale, Calif., USA) is used for observing the results.
# The aforementioned HepG2 cells cultivated normally are grouped, and then separately cultivated 1 h together with 0, 1, 5, 10 μg/ml lucidone (0 μg/ml, negative control group) or 10 μg/ml curcumin (curcumin, a known antioxidation compound, taken as a positive control group), and then alcohol (100 mM) is added for 24 h cultivation to stimulate oxidation stress. […]
# HO-1 is one of ARE-driven antioxidant genes. […] In this experiment, the content of Nrf-2 in cytoplasm and nuclear extracts of tested HepG2 cells, as well as the bonding activity of Nrf-2 and ARE is measured (refer to relevant experimental methods in preferred embodiment 1).
# Said content refers to the color strength of the result from Western blotting calculated by typical software in the field.
# nitric oxide = assay: Griess nitrite test, nitric oxide generation in alcohol-treated HepG2 cells; type: cell-based, human; conditions: 1, 5, 10 μg/ml, 1 h before 100 mM alcohol for 24 h; dose-dependent; effect equivalent to curcumin 10 μg/ml
# Procedure: as §1
# The content of reactive oxygen species and nitric oxide in the tested culture solution of HepG2 cells is measured (refer to preferred embodiment 1 [Test of accumulation of reactive oxygen species in cells] and [Griess nitrite test]). […]
# [7] = tested on: mouse suffered by hepatitis arising from alcohol; assay: Content of ALT, AST, nitric oxide and TNF-α in serum, mouse model of hepatitis arising from alcohol; type: in vivo; conditions: lucidone 100 mg/Kg/day i.p. 7 d, mean ± SD
# From the text: as §3, §5
# According to the principle of Griess reaction, nitrite accumulated from the supernatant liquid cultivated by cells and mouse serum is measured to obtain indirectly the generation of nitric oxide. The supernatant liquid cultivated by cells and tumor necrosis factor-α in the serum are measured using the currently available human TNF-αELISA kit. In brief, aforementioned HepG2 cells of […] are separately cultivated in 96-well plate, and then added with lucidone and alcohol to cultivate them for 24 h. Next, the culture solution is diluted by the work reagent of aforementioned kit by a percentage of 1:2. Then, every 100 μl diluted culture solution is subject to ELISA reaction as per the operating instruction of aforementioned kit, and then a spectrometer is used to detect the absorbance at wavelength 450 nm so as to judge the content of tumor necrosis factor-α; in the mouse experiment, the mouse serum is diluted properly and then the content of tumor necrosis factor-α is tested as per the operating instruction of aforementioned kit.
# as §4
# Take out the serum of mouse suffered by hepatitis arising from alcohol as per aforementioned experimental design, and determine the content of ALT, AST, nitric oxide and TNF-α by the experimental methods in preferred embodiment 1.
# [8] = intra-peritoneal injection alcohol
# [9] = intra-peritoneal injection alcohol (80%, 1 ml/Kg, 3 doses every 12 h)
# [10] = orally taking alcohol (80%, 1 ml/Kg, 3 doses every 12 h)
compound,measurement,setting,value
"COc1cc(/C=C/C(=O)CC(=O)/C=C/c2ccc(O)c(OC)c2)ccc1O [curcumin, reference compound]",lipid peroxidation in the cells caused by alcohol,HepG2 cells [1],reduce greatly
same,decline of GSH concentration in the cells caused by alcohol,HepG2 cells [2],can be avoided
same,expression of HO-1 mRNA in the cells,HO-1 [3],substantial increase
same,expression of HO-1 protein in the cells,HO-1 [4],substantial increase
COC1=CC(=O)C(=C(O)/C=C/c2ccccc2)C1=O [lucidone],content of TNF-α in cell culture solution,tumor necrosis factor-α,reduced the phenomenon of growing content
same,GSH in tissue,[5]; [8],173.9 ± 58.5 nmol/mg of protein
same,MDA in tissue,[5]; [8],20.9 ± 0.71 nmol/mg of protein
same,GSH in serum,[5]; [8],42.9 ± 1.8 nmol/mg of protein
same,MDA in serum,[5]; [8],16.2 ± 0.77 nmol/mg of protein
same,GSH in tissue,[5]; orally taking alcohol,261.2 ± 11.1 nmol/mg of protein
same,MDA in tissue,[5]; orally taking alcohol,69.2 ± 0.67 nmol/mg of protein
same,GSH in serum,[5]; orally taking alcohol,30.5 ± 1.0 nmol/mg of protein
same,MDA in serum,[5]; orally taking alcohol,19.5 ± 0.41 nmol/mg of protein
same,content of ALT in cell culture solution,HepG2 cells [6],reduced the phenomenon of growing content
same,content of AST in cell culture solution,HepG2 cells [6],reduced the phenomenon of growing content
same,lipid peroxidation in the cells caused by alcohol,HepG2 cells [1],reduce greatly
same,decline of GSH concentration in the cells caused by alcohol,HepG2 cells [2],can be avoided
same,bonding activity of Nrf-2 and ARE,Nrf-2 and ARE,improve significantly the bonding activity
same,generation of reactive oxygen species caused by alcohol,reactive oxygen species,reduced the generation
same,Nrf-2 translocation (Nrf-2 content in nucleus),Nrf-2,facilitate Nrf-2 translocation
same,generation of nitric oxide caused by alcohol (nitrite),nitric oxide,reduced the generation
same,ALT in serum,[7]; [9],103.0 ± 65.6 U/L
same,AST in serum,[7]; [9],139.6 ± 12.2 U/L
same,TNF-α in serum,[7]; [9],3.91 ± 0.28 ng/mL
same,nitric oxide in serum,[7]; [9],102.3 ± 0.52 nM/mL
same,ALT in serum,[7]; [10],875.4 ± 57.2 U/L
same,AST in serum,[7]; [10],508.0 ± 31.7 U/L
same,TNF-α in serum,[7]; [10],10.0 ± 0.28 ng/mL
same,nitric oxide in serum,[7]; [10],370.6 ± 0.53 nM/mL
same,expression of HO-1 mRNA in the cells,HO-1 [3],substantial increase
same,expression of HO-1 protein in the cells,HO-1 [4],substantial increase
